Broadly, the EC50 is the concentration at which the effect is half-maximal. What is called IC50 is the point on the concentration scale where inhibition reaches its midpoint.

For one series, the system named is PC3ML cells. In words: Cell viability, ATP-LITE assay. The class given is cell-based, human. The following applies: for EC50: Homo sapiens, PC3-ML, Table 9, read-out: PC3ML EC50. In a few lines: (§1)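 Human cancer lines were seeded at 2000 (H460, H1299), 3000 (PC3) or 10,000 (RS11846) cells/well in F12 or RPMI1640 with 5% FBS. Compounds were added in 0.1% DMSO 24 h after seeding. Viability was read by ATP-LITE luminescence after 72 h and normalized to DMSO controls.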

In another series the test system is H1299 cell line. In words: Cell viability, ATP-LITE assay. It counts as cell-based, human. The conditions noted are these: Homo sapiens, NCI-H1299; Table 9; read-out: H1299 EC50. In a few lines: as §1
Series [1] is described as follows: PAMPA cell membrane permeability. It counts as in vitro ADME. The following applies: Table 11; Low/Medium, not defined. The source says:
PAMPA is parallel artificial membrane permeation assay.
Background: The PAMPA barrier holds no transporters, so it reflects passive diffusion.

For series [2], the target named is T1, BCL-XL (Homo sapiens, UniProt Q07817). In words: 1D 1H-NMR binding assay. Note: key: +++: Very Active; ++: Active; +: Mild; −: Weak. The conditions noted are these: Table 9. The procedure:
By observing the aliphatic region of the spectra, binding could be readily detected due to chemical shift changes in active site methyl groups of Ile, Leu, Thr, Val or Ala (region between −0.8 and 0.3 ppm). All experiments were performed with a 600 MHz spectrometer Bruker Avance 600 equipped with four rf channels and z-axis pulse-field gradients.
Target sequence in this assay (Q07817 whole entry): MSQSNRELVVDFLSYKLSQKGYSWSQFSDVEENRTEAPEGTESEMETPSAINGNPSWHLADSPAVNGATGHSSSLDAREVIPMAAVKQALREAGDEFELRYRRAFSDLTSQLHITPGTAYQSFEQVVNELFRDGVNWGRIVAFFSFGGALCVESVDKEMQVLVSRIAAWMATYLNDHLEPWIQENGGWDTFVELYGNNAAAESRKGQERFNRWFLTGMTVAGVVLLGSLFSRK

Series [3] addresses T1, BCL-XL. In words: Competitive fluorescence polarization assay (FPA), Bak BH3 peptide. On the set-up: 100 nM GST-BCL-XL ΔTM protein. The conditions noted are these: for IC50: Table 9, read-out: FPA IC50 (BCL-XL). The class given is binding. The gist of the method: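 100 nM GST-BCL-XL ΔTM preincubated with compound in PBS pH 7.4 for 10 min at room temperature, then FITC-Bak BH3 peptide added. Polarization read after 10 min. IC50 from sigmoidal dose-response fit; mean ± SE of three independent experiments.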
Target sequence in this assay (Q07817 1-209 limits assumed): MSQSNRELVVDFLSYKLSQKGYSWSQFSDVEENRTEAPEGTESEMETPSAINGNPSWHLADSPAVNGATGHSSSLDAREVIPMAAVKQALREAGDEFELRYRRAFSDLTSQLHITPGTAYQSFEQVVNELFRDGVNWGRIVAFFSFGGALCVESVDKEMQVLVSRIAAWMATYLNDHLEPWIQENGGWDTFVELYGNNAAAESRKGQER

Another series concerns RS11846 cell line. The series is described as follows: Cell viability, ATP-LITE assay. It counts as cell-based. The following applies: Homo sapiens, Table 9; read-out: RS11846 EC50 (ATP-LITE assay). The gist of the method:
as §1

The subject of series [4] is H460 human lung cell line. In words: Cell viability, ATP-LITE assay. The class given is cell-based. The conditions noted are these: for EC50: Homo sapiens, NCI-H460, Table 9, read-out: H460 EC50. In a few lines: as §1
Series [5] deals with human lymphoma RS11846 cell line. The series is described as follows: Apoptosis, Annexin V-FITC and propidium iodide assay. It counts as cell-based. The following applies: Homo sapiens, Table 9; read-out: RS11846 EC50 (Annexin V- and propidium iodide assay).
The next series has as its system B6Bcl-2 transgenic mice. The gist of the method:
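B6 line BCL-2 transgenic mice (human BCL-2 fused to IgH locus/enhancer, Balb/c background) sacrificed 24 h post-treatment by lethal i.p. Avertin. Spleen removed and weighed, fixed 3 days in z-FIX for H&E and TUNEL histology.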

In the next series the target is Bcl-2 (Homo sapiens, UniProt P10415). The series is described as follows: Competitive fluorescence polarization assay (FPA), Bim BH3 peptide. The class given is binding. The conditions noted are these: vs Apogossypol.
Series [6] concerns the target T1, BCL-XL. The series is described as follows: Isothermal titration calorimetry (ITC). The class given is binding. The following applies: vs Apogossypol. How it is done: Titrations were performed using a VP-ITC or ITC200 calorimeter from Microcal (Northampton, Mass.). BCL-XL was used at concentrations between 25 and 100 μM in 20 mM sodium phosphate buffer (pH 7.4) and 5-10% DMSO. Titrants were used at concentrations 10-15 fold of that of the protein in the same buffer. Titrations were carried out at 25° C. Data were analyzed using Microcal Origin software provided by the ITC manufacturer (Microcal, Northampton, Mass.).
Target sequence in this assay (Q07817 whole entry): as the sequence (Q07817 whole entry) above
Background: ITC needs no label: the signal is the heat of the interaction.

In another series the target is Mcl-1 (Homo sapiens, UniProt Q07820). The series is described as follows: Competitive fluorescence polarization assay (FPA), Bim BH3 peptide. The class given is binding. The conditions noted are these: vs Apogossypol. (In fluorescence polarisation assays a small probe gives low polarisation when free and higher when bound to something large.)

The structures appear in SMILES notation.

Chain of Mcl-1 (Q07820 whole entry): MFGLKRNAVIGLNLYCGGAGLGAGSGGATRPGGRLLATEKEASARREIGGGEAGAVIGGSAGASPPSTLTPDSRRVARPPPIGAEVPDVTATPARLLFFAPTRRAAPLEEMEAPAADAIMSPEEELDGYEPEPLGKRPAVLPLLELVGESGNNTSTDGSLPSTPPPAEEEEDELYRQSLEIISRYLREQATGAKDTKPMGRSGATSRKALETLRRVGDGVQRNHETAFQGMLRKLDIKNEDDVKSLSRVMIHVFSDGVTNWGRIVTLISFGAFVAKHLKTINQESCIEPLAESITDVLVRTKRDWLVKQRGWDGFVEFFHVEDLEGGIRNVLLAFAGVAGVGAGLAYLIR
Chain of Bcl-2 (P10415 whole entry): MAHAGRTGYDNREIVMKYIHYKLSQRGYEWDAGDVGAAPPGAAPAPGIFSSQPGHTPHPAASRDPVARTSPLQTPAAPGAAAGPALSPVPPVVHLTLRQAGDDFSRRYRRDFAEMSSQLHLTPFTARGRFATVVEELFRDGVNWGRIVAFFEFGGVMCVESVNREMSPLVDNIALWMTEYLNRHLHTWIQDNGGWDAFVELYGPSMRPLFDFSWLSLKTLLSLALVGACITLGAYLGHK

On to `Cc1cc2c(C(=O)c3nc4ccccc4s3)c(O)c(O)cc2c(O)c1-c1c(C)cc2c(C(=O)c3nc4ccccc4s3)c(O)c(O)cc2c1O` [Compound XVII, (1,1′,6,6′,7,7′-hexahydroxy-3,3′-dimethyl-2,2′-binaphthyl-5,5′-diyl)bis(benzo[d]thiazol-2-ylmethanone)], for which the EC50 was found to be 5.2 µM in the series with PC3ML cells; 5.8 µM in the series with H1299 cell line; 2.9 µM with RS11846 cell line; 1.4 µM in series [4]; 7 µM in [5]. In addition, the “Cell Permeability” value in series [1] is given as “Medium”. The “1D ^1H-NMR Binding Assay (BCL-XL)” value on BCL-XL [2] was “+”. In addition, the IC50 at BCL-XL [3] lay in the range of 0.14 to 0.45 µM.

On to `Cc1cc2c(C(=O)C3CCCC3)c(O)c(O)cc2c(O)c1-c1c(C)cc2c(C(=O)C3CCCC3)c(O)c(O)cc2c1O` [Compound VI, (1,1′,6,6′,7,7′-hexahydroxy-3,3′-dimethyl-2,2′-binaphthyl-5,5′-diyl)bis(cyclopentylmethanone)], for which the EC50 was determined as 3.4 µM with PC3ML cells; 3.1 µM in the series on H1299 cell line; 4 µM in the series with RS11846 cell line; 1.1 µM in [4]; 4.5 µM in series [5]. Moreover, the “Cell Permeability” value in series [1] is “Low”. Besides, the “1D ^1H-NMR Binding Assay (BCL-XL)” value at BCL-XL [2] was “+”. The IC50 at BCL-XL [3] came to 0.45 µM.

Regarding `Cc1cc2c(C(=O)Cc3ccccc3)c(O)c(O)cc2c(O)c1-c1c(C)cc2c(C(=O)Cc3ccccc3)c(O)c(O)cc2c1O` [Compound I, 1,1′-(1,1′,6,6′,7,7′-hexahydroxy-3,3′-dimethyl-2,2′-binaphthyl-5,5′-diyl)bis(2-phenylethanone)], the “reduction of spleen weight” value in the series with B6Bcl-2 transgenic mice (groups of six mice, compound I) is around 40%. For the same compound, in the series on B6Bcl-2 transgenic mice (single BCL-2 transgenic mouse, 60 μmmol/kg), the “reduction in spleen weight” value stood at 40%. Also, the “fold more potent than Apogossypol, PC3ML” value with PC3ML cells (vs Apogossypol) was 2-5. Further, the EC50 with H1299 cell line is 3.5 µM; with RS11846 cell line, 2.6 µM; in series [4], 0.68 µM; in [5], 3 to 5.5 µM. Moreover, in [1], the “Cell Permeability” value is reported as “Medium”. For the same compound, on Bcl-2, the “times/fold more potent than Apogossypol, FP Bcl-2” value is reported as “approximately 8”. For the same compound, the “times more potent than Apogossypol, ITC Bcl-XL” value on BCL-XL [6] is on record as 10. For the same compound, at Mcl-1, the “times/fold more potent than Apogossypol, FP Mcl-1” value is around 5. Also, the “1D ^1H-NMR Binding Assay (BCL-XL)” value on BCL-XL [2] is reported as “+++”. On BCL-XL [3], the IC50 is 0.19 µM. Further, the “times more effective than Apogossypol, FP Bcl-XL” value on BCL-XL [3] (vs Apogossypol) is around 20. Also, the “times more potent than Apogossypol, H460” value in [4] (vs Apogossypol) is given as 4-5.

(Values after patent US8039668B2, “Naphthalene-based inhibitors of anti-apoptotic proteins” (Burnham Institute for Medical Research, priority 2008, dated 2011).)
